# Source: PMC5564600 (Oncotarget, 2017)
# Where “and” joins values, the source holds several entries; their conditions need not be identical. Equal values may be shown once.
# Key:
# Experiment in all cases: biochemical
# Format in all cases: binding
# [1] = molecular target: T1, panel of 442 kinases (Homo sapiens, UniProt P09619); conditions: kinase PDGFRB; for remaining activity at 1 µM: read-out: % of control at 1 µM
# T1 construct: purchased Ambit Biosciences (scanMAXX KINOMEscan)
# [2] = molecular target: T2, panel of 442 kinases (Homo sapiens, UniProt Q04912); conditions: kinase MST1R; for remaining activity at 1 µM: read-out: % of control at 1 µM
# T2 construct: purchased Ambit Biosciences (scanMAXX KINOMEscan)
# [3] = molecular target: T3, panel of 442 kinases (Homo sapiens, UniProt Q9UPE1); conditions: kinase SRPK3; for remaining activity at 1 µM: read-out: SRPK3 (% of control at 1 µM)
# T3 construct: purchased Ambit Biosciences (scanMAXX KINOMEscan)
# [4] = molecular target: T4, panel of 442 kinases (Homo sapiens, UniProt Q9Y6E0); conditions: kinase MST3; for remaining activity at 1 µM: read-out: % of control at 1 µM
# T4 construct: purchased Ambit Biosciences (scanMAXX KINOMEscan)
# [5] = molecular target: T5, panel of 442 kinases (Homo sapiens, UniProt Q9HC98); conditions: kinase NEK6; for remaining activity at 1 µM: read-out: % of control at 1 µM
# T5 construct: purchased Ambit Biosciences (scanMAXX KINOMEscan)
# [6] = molecular target: T6, panel of 442 kinases (Homo sapiens, UniProt Q16539); conditions: kinase p38-alpha; for remaining activity at 1 µM: read-out: % of control at 1 µM
# T6 construct: purchased Ambit Biosciences (scanMAXX KINOMEscan)
# [7] = molecular target: T7, panel of 442 kinases (Homo sapiens, UniProt Q9P286); conditions: kinase PAK7; for remaining activity at 1 µM: read-out: % of control at 1 µM
# T7 construct: purchased Ambit Biosciences (scanMAXX KINOMEscan)
# [8] = molecular target: T8, panel of 442 kinases (Homo sapiens, UniProt P37173); conditions: kinase TGFBR2; for remaining activity at 1 µM: read-out: TGFBR2 (% of control at 1 µM)
# T8 construct: purchased Ambit Biosciences (scanMAXX KINOMEscan)
# [9] = molecular target: T9, panel of 442 kinases (Homo sapiens, UniProt P29322); conditions: EPHA8; for remaining activity at 1 µM: read-out: % of control at 1 µM
# T9 construct: purchased Ambit Biosciences (scanMAXX KINOMEscan)
# T9 sequence (P29322 28-1005): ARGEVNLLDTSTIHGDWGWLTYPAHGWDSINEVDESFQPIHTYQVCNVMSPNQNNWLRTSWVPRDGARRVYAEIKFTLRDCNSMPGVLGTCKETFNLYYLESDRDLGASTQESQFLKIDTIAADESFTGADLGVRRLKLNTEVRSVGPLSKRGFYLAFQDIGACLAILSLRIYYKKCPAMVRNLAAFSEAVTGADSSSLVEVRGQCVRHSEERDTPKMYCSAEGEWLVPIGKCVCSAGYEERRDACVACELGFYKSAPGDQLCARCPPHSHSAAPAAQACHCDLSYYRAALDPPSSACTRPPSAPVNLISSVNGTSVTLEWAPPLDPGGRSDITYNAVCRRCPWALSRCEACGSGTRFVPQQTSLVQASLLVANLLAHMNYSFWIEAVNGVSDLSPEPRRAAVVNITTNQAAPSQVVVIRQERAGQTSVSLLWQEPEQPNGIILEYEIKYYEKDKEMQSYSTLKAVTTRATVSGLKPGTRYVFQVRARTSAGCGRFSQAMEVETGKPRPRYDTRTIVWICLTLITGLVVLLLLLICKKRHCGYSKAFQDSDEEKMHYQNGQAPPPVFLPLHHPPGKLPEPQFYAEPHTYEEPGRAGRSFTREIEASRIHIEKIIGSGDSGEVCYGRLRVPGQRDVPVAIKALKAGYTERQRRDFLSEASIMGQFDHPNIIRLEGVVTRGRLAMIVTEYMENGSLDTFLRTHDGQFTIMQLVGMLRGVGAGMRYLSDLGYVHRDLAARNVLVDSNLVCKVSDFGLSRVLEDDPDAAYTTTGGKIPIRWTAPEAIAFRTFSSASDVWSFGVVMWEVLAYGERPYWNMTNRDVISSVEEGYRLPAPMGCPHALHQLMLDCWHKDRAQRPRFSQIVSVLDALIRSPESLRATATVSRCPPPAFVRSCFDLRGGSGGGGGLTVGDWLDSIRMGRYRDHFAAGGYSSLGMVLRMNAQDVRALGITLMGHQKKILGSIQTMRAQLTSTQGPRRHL
# [10] = molecular target: T10, panel of 442 kinases (Homo sapiens, UniProt O95747); conditions: kinase OSR1; for remaining activity at 1 µM: read-out: % of control at 1 µM
# T10 construct: purchased Ambit Biosciences (scanMAXX KINOMEscan)
# [11] = molecular target: T11, panel of 442 kinases (Homo sapiens, UniProt Q02779); conditions: kinase MLK2; for remaining activity at 1 µM: read-out: % of control at 1 µM
# T11 construct: purchased Ambit Biosciences (scanMAXX KINOMEscan)
# [12] = molecular target: T12, panel of 442 kinases (Homo sapiens, UniProt Q9Y4K4); conditions: kinase MAP4K5; for remaining activity at 1 µM: read-out: % of control at 1 µM
# T12 construct: purchased Ambit Biosciences (scanMAXX KINOMEscan)
# [13] = molecular target: T13, panel of 442 kinases (Homo sapiens, UniProt Q07912); conditions: kinase TNK2; for remaining activity at 1 µM: read-out: TNK2 (% of control at 1 µM)
# T13 construct: purchased Ambit Biosciences (scanMAXX KINOMEscan)
# [14] = system: panel of 442 kinases
# [15] = molecular target: T14, panel of 442 kinases (Homo sapiens, UniProt Q9Y2K2); conditions: kinase QSK; for remaining activity at 1 µM: read-out: QSK (% of control at 1 µM)
# T14 construct: purchased Ambit Biosciences (scanMAXX KINOMEscan)
# [16] = molecular target: T15, panel of 442 kinases (Homo sapiens, UniProt P15056, V600E); conditions: BRAF(V600E); for remaining activity at 1 µM: read-out: % of control at 1 µM
# T15 construct: purchased Ambit Biosciences (scanMAXX KINOMEscan)
# [17] = molecular target: T16, panel of 442 kinases (Homo sapiens, UniProt P30291); conditions: kinase WEE1; for remaining activity at 1 µM: read-out: WEE1 (% of control at 1 µM)
# T16 construct: purchased Ambit Biosciences (scanMAXX KINOMEscan)
# [18] = molecular target: T17, panel of 442 kinases (Homo sapiens, UniProt P07947); conditions: kinase YES; for remaining activity at 1 µM: read-out: YES (% of control at 1 µM)
# T17 construct: purchased Ambit Biosciences (scanMAXX KINOMEscan)
# [19] = 10 µM, read-out: % of control at 10 µM
# [20] = EGFR(L747-E749del, A750P), 1 µM
# [21] = EGFR(L747-S752del, P753S), 1 µM
# [22] = kinase KIT(D816V), first of two lines so named (r206), 1 µM
# T15 sequence (P15056 whole entry V600E): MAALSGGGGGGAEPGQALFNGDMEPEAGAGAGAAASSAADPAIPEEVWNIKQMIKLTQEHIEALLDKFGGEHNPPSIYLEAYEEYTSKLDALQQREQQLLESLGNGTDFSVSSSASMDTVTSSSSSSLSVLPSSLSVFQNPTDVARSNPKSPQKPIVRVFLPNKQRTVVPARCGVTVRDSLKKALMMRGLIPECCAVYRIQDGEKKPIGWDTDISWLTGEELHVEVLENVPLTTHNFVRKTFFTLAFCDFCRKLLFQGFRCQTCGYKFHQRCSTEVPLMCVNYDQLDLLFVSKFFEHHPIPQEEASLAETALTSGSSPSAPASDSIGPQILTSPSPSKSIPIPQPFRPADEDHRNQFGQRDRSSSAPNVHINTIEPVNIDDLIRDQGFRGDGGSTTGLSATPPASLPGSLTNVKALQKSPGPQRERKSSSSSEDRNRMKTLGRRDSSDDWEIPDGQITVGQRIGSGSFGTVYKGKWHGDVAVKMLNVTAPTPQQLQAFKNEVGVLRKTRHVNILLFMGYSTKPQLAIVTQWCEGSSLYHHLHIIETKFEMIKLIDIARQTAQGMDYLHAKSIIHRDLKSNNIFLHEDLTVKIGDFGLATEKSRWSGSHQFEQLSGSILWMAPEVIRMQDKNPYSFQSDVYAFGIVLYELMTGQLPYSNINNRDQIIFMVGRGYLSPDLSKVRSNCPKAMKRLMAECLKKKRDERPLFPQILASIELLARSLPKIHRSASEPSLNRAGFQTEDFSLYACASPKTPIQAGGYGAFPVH
# T6 sequence (Q16539 whole entry): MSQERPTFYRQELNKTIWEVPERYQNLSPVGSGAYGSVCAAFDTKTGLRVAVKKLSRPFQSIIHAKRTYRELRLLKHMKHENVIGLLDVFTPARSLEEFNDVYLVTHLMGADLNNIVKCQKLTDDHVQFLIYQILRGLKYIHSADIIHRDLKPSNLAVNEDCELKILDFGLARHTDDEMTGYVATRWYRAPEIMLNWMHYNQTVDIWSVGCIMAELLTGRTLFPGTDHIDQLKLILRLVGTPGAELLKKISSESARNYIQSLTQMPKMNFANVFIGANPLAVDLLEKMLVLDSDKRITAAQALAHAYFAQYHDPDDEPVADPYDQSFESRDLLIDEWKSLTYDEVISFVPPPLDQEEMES
# T11 sequence (Q02779 whole entry): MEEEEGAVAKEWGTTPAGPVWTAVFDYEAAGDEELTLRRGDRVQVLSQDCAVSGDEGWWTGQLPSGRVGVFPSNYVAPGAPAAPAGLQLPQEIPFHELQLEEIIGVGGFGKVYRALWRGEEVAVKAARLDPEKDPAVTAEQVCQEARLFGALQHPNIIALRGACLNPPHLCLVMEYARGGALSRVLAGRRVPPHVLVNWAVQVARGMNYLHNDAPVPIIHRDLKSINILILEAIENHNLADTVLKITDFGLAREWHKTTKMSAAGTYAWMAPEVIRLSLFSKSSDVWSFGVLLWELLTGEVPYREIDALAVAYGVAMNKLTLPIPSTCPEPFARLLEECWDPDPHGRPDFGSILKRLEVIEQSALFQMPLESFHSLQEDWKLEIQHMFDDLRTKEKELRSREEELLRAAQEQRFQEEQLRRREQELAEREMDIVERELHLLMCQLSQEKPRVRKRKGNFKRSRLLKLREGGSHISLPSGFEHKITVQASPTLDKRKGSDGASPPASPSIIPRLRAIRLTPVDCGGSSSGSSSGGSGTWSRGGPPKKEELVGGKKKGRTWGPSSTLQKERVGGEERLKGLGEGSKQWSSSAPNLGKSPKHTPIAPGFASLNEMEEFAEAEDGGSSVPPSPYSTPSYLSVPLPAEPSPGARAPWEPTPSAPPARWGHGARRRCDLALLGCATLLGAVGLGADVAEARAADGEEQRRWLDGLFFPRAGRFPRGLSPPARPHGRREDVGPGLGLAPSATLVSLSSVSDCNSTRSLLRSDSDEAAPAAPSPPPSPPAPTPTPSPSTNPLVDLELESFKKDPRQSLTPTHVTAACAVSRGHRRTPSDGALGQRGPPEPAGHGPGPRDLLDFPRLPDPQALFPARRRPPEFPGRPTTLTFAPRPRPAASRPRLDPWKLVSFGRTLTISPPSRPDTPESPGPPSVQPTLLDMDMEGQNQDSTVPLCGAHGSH
# T3 sequence (Q9UPE1 whole entry): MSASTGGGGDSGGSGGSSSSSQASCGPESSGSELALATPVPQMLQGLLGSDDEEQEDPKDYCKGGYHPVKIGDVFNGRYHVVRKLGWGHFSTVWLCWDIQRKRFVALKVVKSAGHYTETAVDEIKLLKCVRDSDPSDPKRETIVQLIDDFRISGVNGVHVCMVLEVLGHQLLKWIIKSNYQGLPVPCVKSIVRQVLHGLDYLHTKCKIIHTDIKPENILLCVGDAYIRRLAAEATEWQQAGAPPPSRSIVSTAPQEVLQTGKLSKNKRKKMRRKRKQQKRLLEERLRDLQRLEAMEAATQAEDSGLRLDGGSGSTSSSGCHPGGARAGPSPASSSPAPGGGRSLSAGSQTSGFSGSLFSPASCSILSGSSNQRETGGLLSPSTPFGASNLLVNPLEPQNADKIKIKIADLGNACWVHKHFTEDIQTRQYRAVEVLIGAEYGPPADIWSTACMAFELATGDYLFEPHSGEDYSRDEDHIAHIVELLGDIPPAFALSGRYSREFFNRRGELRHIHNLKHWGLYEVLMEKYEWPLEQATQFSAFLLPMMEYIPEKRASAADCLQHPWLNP
# T1 sequence (P09619 33-1106): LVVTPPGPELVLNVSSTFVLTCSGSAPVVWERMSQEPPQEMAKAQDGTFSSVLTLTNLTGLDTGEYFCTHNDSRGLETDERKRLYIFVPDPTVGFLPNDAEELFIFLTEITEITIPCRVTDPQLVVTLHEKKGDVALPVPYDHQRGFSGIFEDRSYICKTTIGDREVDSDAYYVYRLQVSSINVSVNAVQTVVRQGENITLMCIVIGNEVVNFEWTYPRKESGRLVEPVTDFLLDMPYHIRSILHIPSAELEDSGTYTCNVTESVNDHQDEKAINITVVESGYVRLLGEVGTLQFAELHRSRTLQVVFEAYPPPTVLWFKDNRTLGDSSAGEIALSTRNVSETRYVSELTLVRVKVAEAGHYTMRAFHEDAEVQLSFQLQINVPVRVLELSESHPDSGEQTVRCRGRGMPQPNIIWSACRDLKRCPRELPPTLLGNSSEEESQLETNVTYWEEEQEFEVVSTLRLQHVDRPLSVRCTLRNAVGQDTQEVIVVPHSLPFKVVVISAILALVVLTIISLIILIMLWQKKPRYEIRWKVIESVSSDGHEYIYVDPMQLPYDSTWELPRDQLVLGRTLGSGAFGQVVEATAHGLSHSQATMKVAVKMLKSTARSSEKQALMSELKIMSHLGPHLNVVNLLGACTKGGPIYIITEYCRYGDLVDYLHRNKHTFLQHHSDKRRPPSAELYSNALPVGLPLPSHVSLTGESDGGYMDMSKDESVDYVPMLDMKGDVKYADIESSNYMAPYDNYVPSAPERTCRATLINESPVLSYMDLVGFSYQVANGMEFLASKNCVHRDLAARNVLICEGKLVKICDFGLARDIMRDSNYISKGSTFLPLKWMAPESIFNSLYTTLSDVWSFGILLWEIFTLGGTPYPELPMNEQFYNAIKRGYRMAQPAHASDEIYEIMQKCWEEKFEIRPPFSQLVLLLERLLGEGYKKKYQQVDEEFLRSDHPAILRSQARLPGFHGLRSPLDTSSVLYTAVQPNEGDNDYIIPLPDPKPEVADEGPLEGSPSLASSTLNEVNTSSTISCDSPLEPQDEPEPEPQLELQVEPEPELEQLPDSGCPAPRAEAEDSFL
# T7 sequence (Q9P286 whole entry): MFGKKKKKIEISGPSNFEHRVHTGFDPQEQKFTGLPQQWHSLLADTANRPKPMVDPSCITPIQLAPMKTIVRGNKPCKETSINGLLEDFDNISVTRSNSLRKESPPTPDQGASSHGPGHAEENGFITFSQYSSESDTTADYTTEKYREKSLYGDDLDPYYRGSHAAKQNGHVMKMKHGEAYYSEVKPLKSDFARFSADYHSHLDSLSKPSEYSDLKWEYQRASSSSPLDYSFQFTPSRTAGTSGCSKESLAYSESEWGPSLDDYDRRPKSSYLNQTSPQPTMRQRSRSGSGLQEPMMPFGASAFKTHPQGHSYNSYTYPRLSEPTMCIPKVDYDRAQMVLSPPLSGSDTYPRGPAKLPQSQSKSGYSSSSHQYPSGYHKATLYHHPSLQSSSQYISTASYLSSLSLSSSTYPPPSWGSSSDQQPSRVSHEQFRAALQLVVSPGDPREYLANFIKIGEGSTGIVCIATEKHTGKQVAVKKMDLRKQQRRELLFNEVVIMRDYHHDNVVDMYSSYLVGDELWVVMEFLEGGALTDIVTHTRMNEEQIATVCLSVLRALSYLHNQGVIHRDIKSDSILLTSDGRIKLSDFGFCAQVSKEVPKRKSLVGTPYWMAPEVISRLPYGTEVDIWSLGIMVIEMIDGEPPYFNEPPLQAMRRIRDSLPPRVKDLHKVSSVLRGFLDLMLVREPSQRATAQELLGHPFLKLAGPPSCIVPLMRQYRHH
# T4 sequence (Q9Y6E0 whole entry): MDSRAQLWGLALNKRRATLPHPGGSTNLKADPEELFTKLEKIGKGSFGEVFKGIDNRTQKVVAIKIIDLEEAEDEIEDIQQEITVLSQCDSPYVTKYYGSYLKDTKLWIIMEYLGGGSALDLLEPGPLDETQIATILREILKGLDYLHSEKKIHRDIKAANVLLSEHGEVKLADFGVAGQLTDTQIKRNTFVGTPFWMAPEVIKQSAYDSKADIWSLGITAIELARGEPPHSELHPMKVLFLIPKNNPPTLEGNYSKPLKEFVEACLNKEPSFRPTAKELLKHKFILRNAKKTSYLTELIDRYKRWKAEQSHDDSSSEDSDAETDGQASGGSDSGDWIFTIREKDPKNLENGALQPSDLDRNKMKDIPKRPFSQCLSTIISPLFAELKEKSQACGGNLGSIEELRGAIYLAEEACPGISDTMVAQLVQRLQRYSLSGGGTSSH
SMILES,remaining activity at 1 µM [1] [%],remaining activity at 1 µM [2] [%],remaining activity at 1 µM [3] [%],remaining activity at 1 µM [4] [%],remaining activity at 1 µM [5] [%],remaining activity at 1 µM [6] [%],remaining activity at 1 µM [7] [%],remaining activity at 1 µM [8] [%],remaining activity at 1 µM [9] [%],remaining activity at 1 µM [10] [%],remaining activity at 1 µM [11] [%],remaining activity at 1 µM [12] [%],remaining activity at 1 µM [13] [%],% of control at 1 µM ([14]; 1 μM),remaining activity at 1 µM [15] [%],remaining activity at 1 µM [16] [%],remaining activity at 1 µM [17] [%],remaining activity at 1 µM [18] [%],"% of control at 1 µM ([14]; FLT3(ITD), 1 µM)","% of control at 1 µM [14, 20]",also measured
Nc1cc(C(F)(F)F)c(-c2cc(N3CCOCC3)nc(N3CCOCC3)n2)cn1 [Buparlisib],100,74,100,100,84,87,78,98,100,97,100,96,100,85 % of control and 100 % of control and 91 % of control and 86 % of control,100,74,100,100,,,"remaining activity at 10 µM [1, 19]: 97%; remaining activity at 10 µM [2, 19]: 100%; remaining activity at 10 µM ([3]; 10 µM, read-out: SRPK3 (% of control at 10 µM)): 100%; remaining activity at 10 µM [4, 19]: 100%; remaining activity at 10 µM [5, 19]: 100%; remaining activity at 10 µM [6, 19]: 100%; remaining activity at 10 µM [7, 19]: 69%; remaining activity at 10 µM ([8]; 10 µM, read-out: TGFBR2 (% of control at 10 µM)): 100%; remaining activity at 10 µM [9, 19]: 100%; remaining activity at 10 µM [10, 19]: 100%; remaining activity at 10 µM [11, 19]: 100%; remaining activity at 10 µM [12, 19]: 100%; remaining activity at 10 µM ([13]; 10 µM, read-out: TNK2 (% of control at 10 µM)): 100%; % of control at 10 µM ([14]; 10 μM): 96 % of control and 100 % of control and 93 % of control and 88 % of control; remaining activity at 10 µM ([15]; 10 µM, read-out: QSK (% of control at 10 µM)): 100%; remaining activity at 10 µM [16, 19]: 44%; remaining activity at 10 µM ([17]; 10 µM, read-out: WEE1 (% of control at 10 µM)): 100%; remaining activity at 10 µM ([18]; 10 µM, read-out: YES (% of control at 10 µM)): 100%"
"Cn1c(=O)n(-c2ccc(C(C)(C)C#N)cc2)c2c3cc(-c4cnc5ccccc5c4)ccc3ncc21 [Dactolisib, 2-methyl-2-[4-(3-methyl-2-oxo-8-quinolin-3-yl-2,3-dihydroimidazo[4,5-c]quinolin-1-yl)-phenyl] propionitrile]",,60,91,82,100,87,73,100,94,91,100,55,98,81 % of control and 100 % of control and 86 % of control and 59 % of control,100,82,100,100,44 % of control,,
COc1ncc(-c2ccc3nccc(-c4ccnnc4)c3c2)cc1NS(=O)(=O)c1ccc(F)cc1F [Omipalisib],96,95,100,100,100,97,100,95,100,100,98,100,100,,100,,100,100,100 % of control,92 % of control,"% of control at 1 µM [14, 21]: 87 % of control; % of control at 1 µM ([14]; EGFR(L747-T751del,Sins), 1 µM): 100 % of control; % of control at 1 µM [14, 22]: 100 % of control"
"CS(=O)(=O)N1CCN(Cc2cc3nc(-c4cccc5[nH]ncc45)nc(N4CCOCC4)c3s2)CC1 [Pictilisib, 2-(1H-indazol-4-yl)-6-(4-methanesulfonyl-piperazin-1-ylmethyl)-4-morpholin-4-yl-t hieno[3,2-d]pyrimidine]",,,,,,,,,,,,,,98 % of control and 70 % of control and 99 % of control and 77 % of control and 72 % of control,,,,,,,
"FC(F)c1nc2ccccc2n1-c1nc(N2CCOCC2)nc(N2CCOCC2)n1 [ZSTK474, 2-(difluoromethyl)-1-[4,6-di(4-morpholinyl)-1,3,5-triazin-2-yl]-1H-benzimidazole]",100,92,100,99,100,100,100,100,100,82,100,99,100,,65,56,100,100,99 % of control,89 % of control,"% of control at 1 µM [14, 21]: 100 % of control; % of control at 1 µM ([14]; EGFR(L747-T751del,Sins), 1 µM): 100 % of control; % of control at 1 µM [14, 22]: 100 % of control"
